Values belong to the compound of their own block, whether it stands above or below them.
How the values were obtained:
Adenosine receptor A1 [1] = biological target: Adenosine receptor A1 (Homo sapiens, UniProt P30542); experiment: Binding affinity to human adenosine A1 receptor assessed as inhibition constant
Mu-type opioid receptor = Mu-type opioid receptor (Homo sapiens, UniProt P35372); experiment: Binding affinity to MOR (unknown origin)
[2] = biological target: Delta-type opioid receptor (Homo sapiens, UniProt P41143); experiment: Binding affinity to DOR (unknown origin)
Delta-type opioid receptor, sequence (P41143 whole entry): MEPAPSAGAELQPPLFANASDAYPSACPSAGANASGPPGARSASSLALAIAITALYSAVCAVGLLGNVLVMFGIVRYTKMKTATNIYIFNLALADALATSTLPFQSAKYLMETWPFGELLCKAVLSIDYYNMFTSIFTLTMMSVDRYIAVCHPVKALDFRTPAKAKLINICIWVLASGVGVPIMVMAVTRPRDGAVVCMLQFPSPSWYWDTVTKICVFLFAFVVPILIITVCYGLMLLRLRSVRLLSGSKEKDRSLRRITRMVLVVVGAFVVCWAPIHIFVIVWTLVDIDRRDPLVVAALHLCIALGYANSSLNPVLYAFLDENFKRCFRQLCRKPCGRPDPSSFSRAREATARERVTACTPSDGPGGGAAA

[3] = biological target: T1, Kappa-type opioid receptor (Homo sapiens, UniProt P41145); experiment: Binding affinity to KOR (unknown origin)
T1 sequence (P41145 whole entry): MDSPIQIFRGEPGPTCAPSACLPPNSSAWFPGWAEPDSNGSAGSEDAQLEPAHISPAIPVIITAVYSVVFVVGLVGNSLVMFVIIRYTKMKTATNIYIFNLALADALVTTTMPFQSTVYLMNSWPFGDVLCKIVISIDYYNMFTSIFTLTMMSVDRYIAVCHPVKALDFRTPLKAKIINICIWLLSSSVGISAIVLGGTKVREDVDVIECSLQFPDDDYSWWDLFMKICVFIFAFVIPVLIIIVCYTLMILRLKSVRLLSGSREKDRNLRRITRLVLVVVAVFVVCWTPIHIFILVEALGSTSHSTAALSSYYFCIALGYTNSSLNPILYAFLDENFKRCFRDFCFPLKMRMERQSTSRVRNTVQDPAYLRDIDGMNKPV

Adenosine receptor A3 [4] = biological target: T2, Adenosine receptor A3 (Homo sapiens, UniProt P0DMS8); experiment: Binding affinity to human adenosine A3 receptor assessed as inhibition constant
T2 sequence (P0DMS8 whole entry): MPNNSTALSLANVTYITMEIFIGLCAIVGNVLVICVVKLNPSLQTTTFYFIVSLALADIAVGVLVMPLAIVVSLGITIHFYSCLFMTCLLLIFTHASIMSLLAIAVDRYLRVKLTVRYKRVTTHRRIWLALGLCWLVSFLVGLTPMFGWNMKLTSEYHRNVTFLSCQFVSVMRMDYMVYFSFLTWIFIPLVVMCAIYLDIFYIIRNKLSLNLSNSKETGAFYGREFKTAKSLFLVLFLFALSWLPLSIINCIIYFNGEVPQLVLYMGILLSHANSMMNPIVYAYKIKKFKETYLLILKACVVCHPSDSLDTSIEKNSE

Adenosine receptor A3 [5] = biological target: T3, Adenosine receptor A3 (Mus musculus, UniProt Q61618); experiment: Binding affinity to mouse adenosine A3 receptor assessed as inhibition constant
T3 sequence (Q61618 whole entry): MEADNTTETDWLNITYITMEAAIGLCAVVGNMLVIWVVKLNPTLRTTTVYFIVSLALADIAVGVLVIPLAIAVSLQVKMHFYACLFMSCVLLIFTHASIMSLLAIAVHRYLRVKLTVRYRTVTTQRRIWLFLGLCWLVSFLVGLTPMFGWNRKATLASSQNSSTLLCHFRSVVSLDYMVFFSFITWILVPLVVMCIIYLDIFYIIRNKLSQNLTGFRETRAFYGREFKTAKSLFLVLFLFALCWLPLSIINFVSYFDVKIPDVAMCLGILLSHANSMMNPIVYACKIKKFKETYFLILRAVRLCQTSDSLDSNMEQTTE

[6] = biological target: T1, Kappa-type opioid receptor; experiment: Activation of human KOR assessed as beta-arrestin 2 recruitment at 30 uM by PathHunter enzyme fragment complementation assay relative to control
[7] = biological target: T4, Sodium/nucleoside cotransporter 2 (Homo sapiens, UniProt O43868); experiment: Inhibition of CNT2 (unknown origin)
T4 sequence (O43868 whole entry): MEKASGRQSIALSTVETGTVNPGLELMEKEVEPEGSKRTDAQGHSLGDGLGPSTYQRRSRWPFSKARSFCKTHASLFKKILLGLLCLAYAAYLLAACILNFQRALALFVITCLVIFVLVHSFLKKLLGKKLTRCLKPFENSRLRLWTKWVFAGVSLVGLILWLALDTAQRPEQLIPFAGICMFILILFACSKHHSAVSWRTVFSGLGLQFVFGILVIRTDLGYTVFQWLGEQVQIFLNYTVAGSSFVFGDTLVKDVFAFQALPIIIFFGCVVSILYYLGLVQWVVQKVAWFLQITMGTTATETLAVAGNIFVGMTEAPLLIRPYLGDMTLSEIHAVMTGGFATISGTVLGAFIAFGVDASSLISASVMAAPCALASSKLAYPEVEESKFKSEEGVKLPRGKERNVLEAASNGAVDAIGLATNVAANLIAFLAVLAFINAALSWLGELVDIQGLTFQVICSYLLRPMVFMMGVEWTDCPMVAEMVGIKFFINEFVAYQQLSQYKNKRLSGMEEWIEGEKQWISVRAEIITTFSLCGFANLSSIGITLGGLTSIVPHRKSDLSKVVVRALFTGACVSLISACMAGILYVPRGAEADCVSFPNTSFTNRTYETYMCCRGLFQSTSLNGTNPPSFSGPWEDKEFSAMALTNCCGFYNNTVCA

[8] = biological target: T5, Sodium/nucleoside cotransporter 1 (Homo sapiens, UniProt O00337); experiment: Inhibition of CNT1 (unknown origin)
T5 sequence (O00337 whole entry): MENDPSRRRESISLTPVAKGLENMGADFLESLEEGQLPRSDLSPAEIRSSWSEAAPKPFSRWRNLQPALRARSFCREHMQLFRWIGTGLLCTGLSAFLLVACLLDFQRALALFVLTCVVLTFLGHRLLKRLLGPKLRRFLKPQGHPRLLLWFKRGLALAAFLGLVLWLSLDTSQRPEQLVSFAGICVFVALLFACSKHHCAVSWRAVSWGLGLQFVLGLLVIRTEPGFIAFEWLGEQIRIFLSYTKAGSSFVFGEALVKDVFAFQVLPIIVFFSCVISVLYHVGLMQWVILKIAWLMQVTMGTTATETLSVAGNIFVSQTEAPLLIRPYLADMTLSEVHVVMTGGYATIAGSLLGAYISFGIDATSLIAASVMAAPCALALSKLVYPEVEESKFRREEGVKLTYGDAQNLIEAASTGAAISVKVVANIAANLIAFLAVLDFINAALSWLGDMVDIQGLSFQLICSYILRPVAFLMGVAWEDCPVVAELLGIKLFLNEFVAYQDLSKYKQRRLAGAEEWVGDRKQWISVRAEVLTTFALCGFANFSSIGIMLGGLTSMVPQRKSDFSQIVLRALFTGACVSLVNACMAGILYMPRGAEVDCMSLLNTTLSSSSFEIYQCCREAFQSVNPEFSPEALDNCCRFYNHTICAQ

[9] = biological target: T6, Equilibrative nucleoside transporter 1 (Homo sapiens, UniProt Q99808); experiment: Inhibition of human recombinant ENT1 assessed as inhibition of [3H] uridine transport
T6 sequence (Q99808 whole entry): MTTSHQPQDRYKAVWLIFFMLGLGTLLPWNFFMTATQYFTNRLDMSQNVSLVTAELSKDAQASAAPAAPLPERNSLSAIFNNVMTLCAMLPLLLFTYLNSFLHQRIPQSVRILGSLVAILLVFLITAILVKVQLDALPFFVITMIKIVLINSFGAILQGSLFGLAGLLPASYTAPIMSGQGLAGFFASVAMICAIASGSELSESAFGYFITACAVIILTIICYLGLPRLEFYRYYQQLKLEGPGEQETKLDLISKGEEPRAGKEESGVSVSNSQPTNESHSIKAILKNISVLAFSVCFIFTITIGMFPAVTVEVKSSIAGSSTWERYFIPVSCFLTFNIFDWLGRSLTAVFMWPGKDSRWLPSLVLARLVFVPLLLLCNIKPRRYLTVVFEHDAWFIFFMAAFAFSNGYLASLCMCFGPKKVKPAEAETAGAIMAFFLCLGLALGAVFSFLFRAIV

[10] = biological target: T4, Sodium/nucleoside cotransporter 2; experiment: Inhibition of human CNT2
[11] = biological target: T5, Sodium/nucleoside cotransporter 1; experiment: Inhibition of human CNT1
P2Y purinoceptor 1 [12] = biological target: T7, P2Y purinoceptor 1 (Homo sapiens, UniProt P47900); experiment: Agonist activity at human P2Y1R in human 1321N1 cells; assay type: cell-based
T7 sequence (P47900 whole entry): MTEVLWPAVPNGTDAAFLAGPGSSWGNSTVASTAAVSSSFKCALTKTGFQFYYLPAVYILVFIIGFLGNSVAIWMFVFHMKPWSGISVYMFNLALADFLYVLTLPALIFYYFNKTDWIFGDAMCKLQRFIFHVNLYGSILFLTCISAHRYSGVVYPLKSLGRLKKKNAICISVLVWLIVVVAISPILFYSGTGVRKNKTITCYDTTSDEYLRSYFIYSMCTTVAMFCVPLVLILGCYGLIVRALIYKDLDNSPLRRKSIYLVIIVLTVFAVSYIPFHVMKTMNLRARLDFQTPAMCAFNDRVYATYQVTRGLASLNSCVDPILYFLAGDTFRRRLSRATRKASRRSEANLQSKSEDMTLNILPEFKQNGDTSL

P2Y purinoceptor 1 [13] = biological target: T7, P2Y purinoceptor 1; experiment: Agonist activity at human P2Y1R in human 1321N1 cells assessed as efficacy relative to control; assay type: cell-based
P2Y purinoceptor 6 = P2Y purinoceptor 6 (Mus musculus, UniProt Q9ERK9); experiment: Agonist activity at P2Y6R in mouse adipose tissue; assay type: tissue-based
P2Y purinoceptor 6, sequence (Q9ERK9 whole entry): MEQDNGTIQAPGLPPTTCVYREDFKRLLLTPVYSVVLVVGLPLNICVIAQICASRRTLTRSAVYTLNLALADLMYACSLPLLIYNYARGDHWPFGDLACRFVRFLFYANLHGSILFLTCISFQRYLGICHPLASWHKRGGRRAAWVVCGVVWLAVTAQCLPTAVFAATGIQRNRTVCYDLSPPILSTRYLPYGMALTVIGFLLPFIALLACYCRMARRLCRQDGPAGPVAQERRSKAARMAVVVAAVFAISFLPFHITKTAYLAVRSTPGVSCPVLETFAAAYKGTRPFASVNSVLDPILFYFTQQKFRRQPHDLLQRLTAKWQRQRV

[14] = biological target: 5-hydroxytryptamine receptor 2A (Homo sapiens, UniProt P28223); experiment: Binding affinity to 5HT2A receptor (unknown origin) assessed as inhibition constant
5-hydroxytryptamine receptor 2A, sequence (P28223 whole entry): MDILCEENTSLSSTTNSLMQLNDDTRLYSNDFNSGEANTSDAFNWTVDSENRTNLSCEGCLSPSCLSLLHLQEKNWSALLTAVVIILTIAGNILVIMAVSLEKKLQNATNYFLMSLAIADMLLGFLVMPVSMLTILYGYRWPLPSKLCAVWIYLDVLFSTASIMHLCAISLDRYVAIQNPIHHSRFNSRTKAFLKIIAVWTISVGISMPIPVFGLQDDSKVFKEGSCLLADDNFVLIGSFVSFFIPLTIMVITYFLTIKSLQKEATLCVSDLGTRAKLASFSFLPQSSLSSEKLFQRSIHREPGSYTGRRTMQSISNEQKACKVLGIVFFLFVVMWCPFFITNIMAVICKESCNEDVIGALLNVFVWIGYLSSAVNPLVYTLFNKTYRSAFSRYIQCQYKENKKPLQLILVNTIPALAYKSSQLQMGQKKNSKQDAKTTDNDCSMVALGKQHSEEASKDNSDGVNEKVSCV

[15] = biological target: 5-hydroxytryptamine receptor 2B (Homo sapiens, UniProt P41595); experiment: Binding affinity to 5HT2B receptor (unknown origin) assessed as inhibition constant
5-hydroxytryptamine receptor 2B, sequence (P41595 whole entry): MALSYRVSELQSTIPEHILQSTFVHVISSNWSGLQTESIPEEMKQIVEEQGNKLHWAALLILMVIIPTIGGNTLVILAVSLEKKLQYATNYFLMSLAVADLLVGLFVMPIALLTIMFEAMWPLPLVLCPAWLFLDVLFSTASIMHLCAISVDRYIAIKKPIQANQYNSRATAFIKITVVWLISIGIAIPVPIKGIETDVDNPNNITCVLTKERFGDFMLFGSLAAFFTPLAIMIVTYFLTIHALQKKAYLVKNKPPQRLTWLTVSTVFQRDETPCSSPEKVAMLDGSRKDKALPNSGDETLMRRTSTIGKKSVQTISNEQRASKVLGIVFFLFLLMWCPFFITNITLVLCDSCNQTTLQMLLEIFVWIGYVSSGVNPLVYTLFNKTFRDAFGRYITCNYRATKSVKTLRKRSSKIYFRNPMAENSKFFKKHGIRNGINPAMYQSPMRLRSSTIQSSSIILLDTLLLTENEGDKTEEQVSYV

[16] = biological target: T8, 5-hydroxytryptamine receptor 2C (Homo sapiens, UniProt P28335); experiment: Binding affinity to 5HT2C receptor (unknown origin) assessed as inhibition constant
T8 sequence (P28335 whole entry): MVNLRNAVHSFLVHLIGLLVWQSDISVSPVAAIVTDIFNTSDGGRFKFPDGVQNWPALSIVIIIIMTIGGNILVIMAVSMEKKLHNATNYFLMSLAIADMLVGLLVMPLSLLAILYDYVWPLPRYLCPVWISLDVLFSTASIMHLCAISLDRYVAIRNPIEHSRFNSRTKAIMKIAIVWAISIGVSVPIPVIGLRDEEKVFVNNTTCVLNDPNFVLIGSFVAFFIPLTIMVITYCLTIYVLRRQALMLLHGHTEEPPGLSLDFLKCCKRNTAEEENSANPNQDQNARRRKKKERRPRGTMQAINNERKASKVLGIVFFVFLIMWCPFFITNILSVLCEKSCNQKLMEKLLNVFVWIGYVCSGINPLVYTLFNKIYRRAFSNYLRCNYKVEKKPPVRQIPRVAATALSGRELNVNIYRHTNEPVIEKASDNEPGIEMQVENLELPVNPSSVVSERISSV

Adenosine receptor A2b = Adenosine receptor A2b (Homo sapiens, UniProt P29275); experiment: Binding affinity to human adenosine A2B receptor assessed as inhibition constant
Adenosine receptor A2b, sequence (P29275 whole entry): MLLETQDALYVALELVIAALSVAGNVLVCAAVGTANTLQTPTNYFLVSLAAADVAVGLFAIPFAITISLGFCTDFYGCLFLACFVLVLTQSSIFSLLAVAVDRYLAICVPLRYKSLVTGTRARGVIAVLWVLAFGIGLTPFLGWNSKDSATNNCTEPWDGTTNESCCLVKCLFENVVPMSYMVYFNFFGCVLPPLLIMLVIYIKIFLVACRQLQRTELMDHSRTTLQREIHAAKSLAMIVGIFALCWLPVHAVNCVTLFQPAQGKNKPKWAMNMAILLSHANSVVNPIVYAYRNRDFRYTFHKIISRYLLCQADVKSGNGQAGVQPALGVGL

Adenosine receptor A1 [17] = biological target: Adenosine receptor A1 (Rattus norvegicus, UniProt P25099); experiment: Binding affinity to rat adenosine A1 receptor assessed as inhibition constant
Adenosine receptor A1 (Rattus norvegicus, UniProt P25099), sequence (P25099 whole entry): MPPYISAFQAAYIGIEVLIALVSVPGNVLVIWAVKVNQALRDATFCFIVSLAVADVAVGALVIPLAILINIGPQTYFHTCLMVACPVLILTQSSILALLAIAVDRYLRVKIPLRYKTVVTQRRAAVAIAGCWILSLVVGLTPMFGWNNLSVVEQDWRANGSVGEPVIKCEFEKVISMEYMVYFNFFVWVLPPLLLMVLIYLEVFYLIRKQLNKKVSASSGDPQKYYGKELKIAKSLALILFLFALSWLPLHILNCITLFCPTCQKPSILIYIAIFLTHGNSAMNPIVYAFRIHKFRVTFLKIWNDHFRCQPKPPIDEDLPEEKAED

Adenosine receptor A2a = Adenosine receptor A2a (Homo sapiens, UniProt P29274); experiment: Binding affinity to human adenosine A2A receptor assessed as inhibition constant
Adenosine receptor A2a, sequence (P29274 whole entry): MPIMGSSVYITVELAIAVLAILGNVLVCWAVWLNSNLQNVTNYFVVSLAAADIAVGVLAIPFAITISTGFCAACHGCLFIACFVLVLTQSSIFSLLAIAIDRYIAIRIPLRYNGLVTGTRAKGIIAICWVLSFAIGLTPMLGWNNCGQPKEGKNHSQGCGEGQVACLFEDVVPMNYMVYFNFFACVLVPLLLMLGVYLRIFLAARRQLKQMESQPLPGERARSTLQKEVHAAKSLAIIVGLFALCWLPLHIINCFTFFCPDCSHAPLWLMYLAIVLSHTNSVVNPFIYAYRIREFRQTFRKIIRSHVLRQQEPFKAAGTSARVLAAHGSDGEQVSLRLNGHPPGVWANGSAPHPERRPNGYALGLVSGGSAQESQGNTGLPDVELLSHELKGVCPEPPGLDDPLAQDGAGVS

[18] = Inhibition of S-adenosyl homocysteine hydrolase (unknown origin) relative to control; conditions: Homo sapiens; concentration not given here

Mu-type opioid receptor, sequence (P35372 whole entry): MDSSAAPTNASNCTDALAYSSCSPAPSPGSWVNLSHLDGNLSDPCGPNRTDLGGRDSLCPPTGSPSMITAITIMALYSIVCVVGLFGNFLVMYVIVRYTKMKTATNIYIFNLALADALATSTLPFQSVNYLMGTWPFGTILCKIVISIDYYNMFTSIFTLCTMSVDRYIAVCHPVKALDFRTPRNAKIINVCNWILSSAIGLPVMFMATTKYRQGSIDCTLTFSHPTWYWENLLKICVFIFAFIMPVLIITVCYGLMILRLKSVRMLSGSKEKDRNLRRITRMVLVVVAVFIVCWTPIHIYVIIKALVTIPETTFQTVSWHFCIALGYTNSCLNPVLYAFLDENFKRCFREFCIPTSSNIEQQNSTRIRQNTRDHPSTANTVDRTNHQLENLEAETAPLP
Adenosine receptor A1 (Homo sapiens, UniProt P30542), sequence (P30542 whole entry): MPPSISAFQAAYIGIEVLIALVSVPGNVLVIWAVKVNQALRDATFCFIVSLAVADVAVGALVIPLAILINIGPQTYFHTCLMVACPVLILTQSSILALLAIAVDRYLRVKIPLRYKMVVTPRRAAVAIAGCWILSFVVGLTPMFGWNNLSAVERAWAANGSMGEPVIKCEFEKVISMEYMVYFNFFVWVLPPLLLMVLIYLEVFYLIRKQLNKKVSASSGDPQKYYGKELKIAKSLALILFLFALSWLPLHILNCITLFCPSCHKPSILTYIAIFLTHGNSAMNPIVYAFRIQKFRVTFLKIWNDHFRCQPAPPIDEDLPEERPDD

Compound: CCOC(=O)[C@]12C[C@@H]1[C@@H](n1ccc3c(NCCc4ccccc4)nc(C#Cc4ccccc4)nc31)[C@H](O)[C@@H]2O
Ki (Mu-type opioid receptor): > 10 µM | Ki [2]: 0.627 µM | Ki [3]: 0.207 µM | Ki (Adenosine receptor A3 [4]): 0.483 µM | Ki (Adenosine receptor A3 [5]): > 10 µM | Activity [6]: 38%

Compound: Nc1ncnc2c1ncn2[C@H]1C[C@H](O)[C@@]2(CO)C[C@H]12
IC50 [9]: > 1000 µM | IC50 [10]: 10 µM | IC50 [11]: 49 µM

Compound: CO/N=c1\ccn([C@]23C[C@H]2[C@@H](COP(=O)(O)OP(=O)(O)O)[C@@H](O)[C@H]3O)c(=O)[nH]1
EC50 (P2Y purinoceptor 6): 0.1 µM

Compound: CNC(=O)[C@]12C[C@@H]1[C@@H](n1cnc3c(NC(C4CC4)C4CC4)nc(Cl)nc31)[C@H](O)[C@@H]2O
Ki [14]: > 10 µM | Ki [15]: 0.023 µM | Ki [16]: 0.269 µM

Compound: Nc1ncnc2c1ncn2[C@H]1[C@H](O)[C@H](O)[C@@]2(CO)C[C@H]12
Ki (Adenosine receptor A2b): > 50 µM | Ki (Adenosine receptor A3 [4]): 0.404 µM | Ki (Adenosine receptor A1 [17]): 1.68 µM | Ki (Adenosine receptor A2a): 22.5 µM

Compound: CNc1nc(C#Cc2ccc(Cl)s2)nc2c1ncn2[C@H]1[C@H](O)[C@H](O)[C@@]2(C(=O)OC)C[C@H]12
Ki (Adenosine receptor A3 [5]): > 10 µM

Compound: Nc1ncnc2c1ncn2[C@@H]1C=C(CO)[C@@H](O)[C@H]1O
inhibition [18]: 30%

Compound: CSc1nc(N)c2ncn([C@H]3[C@H](O)[C@H](O)[C@@]4(COP(=O)(O)OP(=O)(O)O)C[C@H]34)c2n1
EC50 (P2Y purinoceptor 1 [12]): 0.0004 µM | Efficacy (P2Y purinoceptor 1 [13]; filed as agonist): 100%

Compound: CCCNc1nc(C#Cc2ccc(Cl)s2)nc2c1ncn2[C@H]1[C@H](O)[C@H](O)[C@]2(C(=O)NC)C[C@H]12
Ki (Adenosine receptor A1 [1]): > 10 µM

Further lines, results first:

Ki (Adenosine receptor A1 [1]): > 10 µM
Compound: CNC(=O)[C@@]12C[C@@H]1[C@@H](n1cnc3c(NC)nc(C#Cc4ccc(F)s4)nc31)[C@H](O)[C@@H]2O

IC50 [7]: > 10 µM | IC50 [8]: > 10 µM
Compound: O=[N+]([O-])c1ccc(CSc2ncnc3c2ncn3[C@@H]2O[C@H](CO)[C@@H](O)[C@H]2O)cc1 [NITROBENZYLMERCAPTOPURINE RIBONUCLEOSIDE]

EC50 (P2Y purinoceptor 1 [12]): 0.0084 µM | Efficacy (P2Y purinoceptor 1 [13]): 0%
Compound: CNc1nc(I)nc2c1ncn2[C@H]1C[C@H](OP(=O)(O)O)[C@@]2(COP(=O)(O)O)C[C@H]12

Ki (Mu-type opioid receptor): 0.637 µM | Ki [2]: 0.786 µM | Ki [3]: 0.042 µM | Ki (Adenosine receptor A3 [4]): 0.448 µM | Ki (Adenosine receptor A3 [5]): > 10 µM | Activity [6]: 0%
Compound: CCOC(=O)[C@]12C[C@@H]1[C@@H](n1ccc3c(NC)nc(C#Cc4ccc(Cl)s4)nc31)[C@H](O)[C@@H]2O

From ChEMBL document CHEMBL5233204, “Expanding the repertoire of methanocarba nucleosides from purinergic signaling to diverse targets” (RSC Med Chem, 2021)
